Experimental data reported in patent US12145923B2, “Tetrahydroisoquinoline compound, preparation method therefor, pharmaceutical composition containing same, and use thereof” (SHANGHAI INSTITUTE OF MATERIA MEDICA, CHINESE ACADEMY OF …, priority 2018, dated 2024).
Several values for one entry are separate records, joined by “and”; a condition that tells them apart may be missing. Equal values may be shown once. Read-outs that look alike come from different tables or passages of the source. Each block holds one compound with its values, some of them ahead of it.

How the values were obtained:
[1] = Rat pharmacokinetic test; type: in vivo; details: for Vd: read-out: Vss; for bioavailability: oral, gavage 20 mg/kg vs intravenous 10 mg/kg, dosage standardized, read-out: F (absolute bioavailability)
Protocol: Six male healthy rats weighing 150-200 g were randomly divided into 2 groups (n=3). Compounds 14, 16, 17, 18, 22 and 29 of the present invention were administered by gavage and intravenous injection, respectively, at a administration volume of 10 mL/kg. The drug was formulated with DMSO/Tween 80/saline solution (5:5:90, v/v/v). The rats were fasted for 12 h before testing, water ad lib, and uniformly feeded 2 h after administration.
gavage administration: 0.25, 0.5, 1.0, 2.0, 4.0, 6.0, 8.0 and 24 h after administration:
intravenous administration: 5 min, 0.25, 0.5, 1.0, 2.0, 4.0, 6.0, 8.0 and 24 h after administration;
0.3 mL of venous blood was collected at the above time points via the rat eye vein venous plexus, placed in heparinized test tube, centrifuged at 11000 rpm for 5 min. Plasma was separated and frozed in a −20° C. refrigerator.
The concentration of compounds in rat plasma was determined by LC/MS/MS. The pharmacokinetic parameters after administration were calculated by a non-compartmental model of DAS 3.0 software.

[2] = Cytotoxicity on RAW 264.7 cells (CCK-8 method); type: cell-based, mouse; details: mouse, RAW 264.7 cells; drug concentration required to cause median cytotoxicity, RAW 264.7
[3] = test system: RAW 264.7 cells; assay: Cytotoxicity on RAW 264.7 cells (CCK-8 method); type: cell-based, mouse
[4] = Beagle dog pharmacokinetic test; type: in vivo
Protocol: Six male healthy beagle dogs weighing 9-11 kg were randomly divided into 2 groups (n=3). The compound (S)-C8 of the present invention was administered by gavage administration and intravenous injection, respectively, and the administration volume was 5 mL/kg and 1 mL/kg, respectively. The gavage administration was formulated with 0.5% CMC-Na+0.25% Tween 80, and intravenous administration was formulated with 5% DMSO/40% PEG400/55% saline.
• gavage administration: 0.25, 0.5, 1.0, 2.0, 4.0, 6.0, 8.0 and 24 h after administration; • intravenous administration: 5 min, 0.25, 0.5, 1.0, 2.0, 4.0, 6.0, 8.0 and 24 h after administration; • 1 ml of venous blood was taken at the above time points from the veins of the extremities, placed in an EDTA-2K anticoagulation tube, and centrifuged at 3500 rpm for 10 minutes. Plasma was separated, and frozen in a −20° C. refrigerator. 3. Sample Testing and Data Analysis
The concentration of compound (S)-C8 in Beagle dog plasma was determined by LC/MS/MS.
The pharmacokinetic parameters after administration were calculated by a non-compartmental model of Phoenix 1.3 software (Pharsight, USA).

[5] = test system: TNF-α secretion in PBMC; assay: Inhibition of LPS-stimulated TNF-α secretion in PBMC (ELISA); type: cell-based; details: Homo sapiens; for inhibition at 1 µM / inhibition at 10 µM: read-out: Inhibition rate %
Source text: According to the difference in cell density in human blood, PBMC (peripheral blood mononuclear cell, PBMC) was directly separated and purified by gradient centrifugation using lymphocyte separation fluid. The cell type was mononuclear cells in blood, mainly including lymphocytes (T/B), monocytes, macrophages, dendritic cells and other minor cell types, of which lymphocytes account for a large part, which can directly in vitro simulate the blood immune environment.
PBMC cells isolated from human blood were implanted into 96-well plates at 2*10^5/ml; compounds in gradients were added, with at least three replicates for each gradient; After the PBMCs were incubated at 37° C., 5% CO2 for 1 hour, LPS was added (the final concentration was 10 ug/ml) to stimulate PBMC to express TNF-α, and incubated for another 18-20 h at 37° C., 5% C02. The 96-well plate was collected. The background control with no stimulant and stimulation control wells were also set, with a total volume of 200 μl. The culture supernatant was collected by centrifugation, and the expression level of TNF-α in the culture supernatant was detected by ELISA.

[6] = test system: acute inflammation model of mouse back air sac; assay: Acute inflammation model of mouse back air sac (carrageenan); type: in vivo; details: oral gavage 5 mg/kg; for inflammatory response: 24 h and 1 h before sensitization
Protocol: On the first day of the experiment, mice were subcutaneously injected with 3 ml of air on the back, and subcutaneously injected with 1.5 ml of air on the back on day 3, and subcutaneously injected with 1 ml of 2% carrageenan (Sigma-Aldrich, St. Louis, MO, USA) on the back on day 6 for sensitization. 4 hours after sensitization, secretion in the air sac was lavaged with phosphate buffer solution. The lavage fluid was used for white blood cell count and inflammatory factor detection. […] Tumor necrosis factor-α and interleukin-6 detection kits were purchased from BD Pharmingen (San Diego, CA, USA).

[7] = test system: tumor necrosis factor-α secretion in RAW 264.7 cells; assay: Inhibition of LPS-stimulated tumor necrosis factor-α secretion in RAW 264.7 cells (ELISA); type: cell-based, mouse; details: for inhibition at 0.5 µM / inhibition at 5 µM / inhibition at 50 µM / IC50: Mus musculus; for inhibition at 0.5 µM / inhibition at 5 µM / inhibition at 50 µM: RAW264.7, 4 h, read-out: Tumor necrosis factor-α inhibition rate/%; for IC50: RAW264.7
Protocol: After the activation by bacterial lipopolysaccharide (LPS), various inflammatory mediators such as tumor necrosis factor-α will be released; Phosphodiesterase PDE4 is also expressed in macrophages, and the inhibitory activity of the compound on phosphodiesterase PDE4 can be reflected by detecting the secretion of tumor necrosis factor-α.
Under the stimulation of 1 μg/ml LPS (L5886, Sigma, St. Louis, MO, USA), the cells were cultured in a 37° C., 5% CO2 incubator for 4 h. The background control with no stimulant and stimulation control wells were also set, with a total volume of 200 μl. The culture supernatant was collected by centrifugation, and the secretion level of tumor necrosis factor-α in the culture supernatant was detected by enzyme-linked immunosorbent assay. The tumor necrosis factor-α detection kit was purchased from BD Pharmingen (San Diego, CA, USA).

[8] = target: Human PDE4D catalytic domain (Homo sapiens (Human), UniProt Q08499); assay: Scintillation Proximity Assay (SPA), inhibition of PDE4D catalytic domain activity; type: biochemical; details: for inhibition at 1 µM: read-out: PDE4D enzyme activity inhibition rate %
Human PDE4D catalytic domain, sequence (Q08499 386-715): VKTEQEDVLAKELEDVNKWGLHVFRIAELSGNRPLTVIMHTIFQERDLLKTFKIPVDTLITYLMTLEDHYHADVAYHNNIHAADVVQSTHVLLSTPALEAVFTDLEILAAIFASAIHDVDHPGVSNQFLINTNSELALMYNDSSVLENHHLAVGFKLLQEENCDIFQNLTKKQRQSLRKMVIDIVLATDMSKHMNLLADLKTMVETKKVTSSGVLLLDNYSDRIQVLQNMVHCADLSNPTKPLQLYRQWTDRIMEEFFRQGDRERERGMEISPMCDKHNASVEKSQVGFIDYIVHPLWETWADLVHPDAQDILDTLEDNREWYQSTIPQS
Protocol: The scintillation Proximity Assay (SPA) method was used to determine the inhibitory effect of compounds on the activity of PDE4D catalytic domain. Human PDE4D catalytic domain protein was obtained by expression and purification in E. coli. […] [^3H]-cAMP, scintillation beads (RPNQO150, Perkin Elmer), and 96-well scintillation microplates (Isoplate-96, Perkin Elmer) were purchased from Perkin Elmer Company.
Finally, 10 μl [^3H]-cAMP (0.005 μCi/μl) was added and incubated for 30 min at 30° C. in a water bath. 50 μl SPA beads was added to quench the reaction, shaked appropriately, and stood for 20 minutes. A microplate scintillation counter was used.

[9] = intravenous injection, 10 mg/kg
[10] = male, plasma, intravenous injection, 10 mg/kg
[11] = male, plasma, iv, 10 mg/kg, intravenous injection, 10 mg/kg, read-out: AUC0-t
[12] = male, plasma, po, 20 mg/kg, gavage, 20 mg/kg, read-out: AUC0-t
[13] = male, plasma, po, gavage, 20 mg/kg
[14] = male, plasma, intravenous injection, 3 mg/kg
[15] = male, plasma, po, gavage, 10 mg/kg
[16] = TNF-α secretion in PBMC, read-out: IC50
[17] = PDE4D, unit given as mM, read-out: IC50

AUC0-t ([1]; gavage, 20 mg/kg): 491 ng·h/mL
t1/2 ([1]; gavage, 20 mg/kg): 1.03 h
AUC0-t [1, 9]: 2640 ng·h/mL
AUC(0-inf) [1, 10]: 2640 ng·h/mL
MRT [1, 10]: 0.544 h
half-life [1, 10]: 0.707 h
Vd [1, 10]: 2.1 L/kg
AUC0-t [1, 11]: 2640 ng·h/mL
bioavailability ([1]; male, plasma): 9.3%
AUC0-t [1, 12]: 508 ng·h/mL
AUC(0-inf) [1, 13]: 508 ng·h/mL
MRT [1, 13]: 2 h
Tmax [1, 13]: 1.33 h
half-life [1, 13]: 1.03 h
AUC0-t ([4]; gavage, 10 mg/kg): 16601 ng·h/mL
t1/2 ([4]; gavage, 10 mg/kg): 2.92 h
AUC0-t ([4]; intravenous injection, 3 mg/kg): 9610 ng·h/mL
AUC(0-inf) [4, 14]: 9800 ng·h/mL
MRT [4, 14]: 2.37 h
half-life [4, 14]: 1.96 h
AUC0-t ([4]; male, plasma, intravenous injection, 3 mg/kg, read-out: AUC0-t): 9610 ng·h/mL
Vd ([4]; male, plasma, intravenous injection, 3 mg/kg, read-out: Vss): 0.96 L/kg
bioavailability ([4]; male, plasma, oral, gavage 10 mg/kg vs intravenous 3 mg/kg, dosage standardized, read-out: F (absolute bioavailability)): 52.3%
Cmax [4, 15]: 4680 ng/mL
MRT [4, 15]: 3.61 h
Tmax [4, 15]: 0.5 h
half-life [4, 15]: 2.92 h
AUC0-t ([4]; male, plasma, po, gavage, 10 mg/kg, read-out: AUC0-t): 16600 ng·h/mL
inhibition at 1 µM ([8]; Compound concentration: 1 μM): 95%
IC50 [8, 17]: 0.08 µM
IC50 ([8]; read-out: IC50 value of PDE4 inhibitory activity): < 0.1 µM
Compound: CCOc1cc2c(cc1OC)CCN(C=O)[C@H]2CCc1c[nH]c2ccc(OC)cc12 [(S)-C8, (S)-7-ethoxy-6-methoxy-1-(2-(5-methoxy-1H-indol-3-yl)ethyl)-3,4-dihydroisoquinoline-2(1H)-formaldehyde]
CC50 at 4 h [2]: > 50 µM
Cell survival rate/% ([3]; RAW 264.7, 0.5 μM): 89.2%
Cell survival rate/% ([3]; RAW 264.7, 5 μM): 96.1%
Cell survival rate/% ([3]; RAW 264.7, 50 μM): 93.8%
inhibition at 1 µM ([5]; TNF-α secretion in PBMC, 1 μM): 79.7%
inhibition at 10 µM ([5]; TNF-α secretion in PBMC, 10 μM): 86.8%
IC50 [5, 16]: 0.026 µM
IC50 ([5]; TNF-α secretion in PBMC, read-out: IC50 value): 0.026 µM
number of leukocyte infiltration ([6]; air sac lavage): reduce
secretion level of interleukin-6 in lavage [6]: reduce
secretion level of tumor necrosis factor-α in lavage [6]: reduce
inflammatory response [6]: significantly reduce
inhibition at 0.5 µM ([7]; RAW 264.7, 0.5 μM): -6%
inhibition at 5 µM ([7]; RAW 264.7, 5 μM): 60.4%
inhibition at 50 µM ([7]; RAW 264.7, 50 μM): 58.1%
IC50 ([7]; RAW 264.7): 1.9 µM
inhibitory activity on tumor necrosis factor-α compared with the positive compound Apremilast ([7]; RAW 264.7): comparable or stronger

Compound: COc1cc2c(cc1OC)[C@H](CCc1c[nH]c3ccccc13)N(C=O)CC2 [(S)-A1, (S)-1-(2-(1H-indol-3-yl)ethyl)-6,7-dimethoxy-3,4-dihydroisoquinoline-2(1H)-formaldehyde]
CC50 at 4 h [2]: > 50 µM
Cell survival rate/% ([3]; RAW 264.7, 0.5 μM): 112.3% and 103%
Cell survival rate/% ([3]; RAW 264.7, 5 μM): 126.4% and 100.2%
Cell survival rate/% ([3]; RAW 264.7, 50 μM): 88.8% and 102%

Compound: CCOc1cc([C@@H](CS(C)(=O)=O)N2C(=O)c3cccc(NC(C)=O)c3C2=O)ccc1OC [Apremilast, reference compound]
CC50 at 4 h [2]: > 10 µM
IC50 ([7]; RAW 264.7): 4.2 µM

Compound: COc1cc2c(cc1OC)[C@H](CCc1c[nH]c3cc(C)ccc13)N(C=O)CC2 [(S)-C5, (S)-6,7-dimethoxy-1-(2-(6-methyl-1H-indol-3-yl)ethyl)-3,4-dihydroisoquinoline-2(1H)-formaldehyde]
Cell survival rate/% ([3]; RAW 264.7, 0.5 μM): 98%
Cell survival rate/% ([3]; RAW 264.7, 5 μM): 109.4%
Cell survival rate/% ([3]; RAW 264.7, 50 μM): 93.4%
secretion level of interleukin-6 in lavage [6]: reduce
secretion level of tumor necrosis factor-α in lavage [6]: reduce
inflammatory response [6]: significantly reduce

Compound: COC(=O)CN1CCc2cc(OC)c(OC)cc2C1CCc1c[nH]c2ccccc12 (stereo not drawn) [Compound B5, methyl-2-(1-(2-(1H-indol-3-yl)ethyl)-6,7-dimethoxy-3,4-dihydroisoquinoline-2(1H)-yl) acetate]
Cell survival rate/% ([3]; RAW 264.7, 0.5 μM): 86%
Cell survival rate/% ([3]; RAW 264.7, 5 μM): 88.2%
Cell survival rate/% ([3]; RAW 264.7, 50 μM): 103.8%
inhibition at 1 µM ([5]; PBMC): 21.7%
inhibition at 10 µM ([5]; PBMC): 55.2%
inhibition at 0.5 µM [7]: -2.1%
inhibition at 5 µM [7]: 20%
inhibition at 50 µM [7]: 47.9%
inhibition at 1 µM [8]: 39.1%

inhibition at 1 µM ([8]; Compound concentration: 1 μM): 82.9%
IC50 [8, 17]: 0.19 µM
Compound: COCC(=O)N1CCc2cc(OC)c(OC)cc2[C@@H]1CCc1c[nH]c2ccccc12 [(S)-B11, (S)-1-(1-(2-(1H-indol-3-yl)ethyl)-6,7-dimethoxy-3,4-dihydroisoquinoline-2(1H)-yl)-2-methoxyethane-1-one]
Cell survival rate/% ([3]; RAW 264.7, 0.5 μM): 110.9%
Cell survival rate/% ([3]; RAW 264.7, 5 μM): 111.2%
Cell survival rate/% ([3]; RAW 264.7, 50 μM): 102.2%
inhibition at 1 µM ([5]; TNF-α secretion in PBMC, 1 μM): 60.1%
inhibition at 10 µM ([5]; TNF-α secretion in PBMC, 10 μM): 90.7%
IC50 [5, 16]: 0.24 µM
inhibition at 0.5 µM ([7]; RAW 264.7, 0.5 μM): -7.8%
inhibition at 5 µM ([7]; RAW 264.7, 5 μM): 1.1%
inhibition at 50 µM ([7]; RAW 264.7, 50 μM): 51.3%

inhibition at 1 µM ([8]; Compound concentration: 1 μM): 19.2%
IC50 [8, 17]: 2.99 µM
Compound: COc1cc2c(cc1OC1CCCC1)C(CCc1c[nH]c3ccccc13)N(C=O)CC2 (stereo not drawn) [Compound A2, 1-(2-(1H-indol-3-yl)ethyl)-7-(cyclopentyloxy)-6-metthoxy-3,4-dihydroisoquinoline-2(1H)-formaldehyde]
Cell survival rate/% ([3]; RAW 264.7, 0.5 μM): 111.6%
Cell survival rate/% ([3]; RAW 264.7, 5 μM): 113%
Cell survival rate/% ([3]; RAW 264.7, 50 μM): 55.1%
inhibition at 10 µM ([5]; TNF-α secretion in PBMC, 10 μM): 43%
inhibition at 0.5 µM ([7]; RAW 264.7, 0.5 μM): 9.7%
inhibition at 5 µM ([7]; RAW 264.7, 5 μM): -4.4%
inhibition at 50 µM ([7]; RAW 264.7, 50 μM): 99.4%

AUC0-t ([1]; gavage, 20 mg/kg): 9232.3 ng·h/mL
AUC0-t [1, 9]: 6761.8 ng·h/mL
AUC(0-inf) [1, 10]: 6760 ng·h/mL
MRT [1, 10]: 0.9 h
half-life [1, 10]: 0.2 h
Vd [1, 10]: 0.53 L/kg
AUC0-t [1, 11]: 6760 ng·h/mL
bioavailability ([1]; male, plasma): 68.3%
Cmax ([1]; male, plasma, po, 20 mg/kg, gavage): 2380 ng/mL
AUC0-t [1, 12]: 9230 ng·h/mL
AUC(0-inf) [1, 13]: 9230 ng·h/mL
MRT [1, 13]: 2.6 h
Tmax [1, 13]: 1 h
half-life [1, 13]: 1 h
Compound: CCOc1cc2c(cc1OC)CCN(C=O)[C@H]2CCc1c[nH]c2cc(C)ccc12 [(S)-C7, (S)-7-ethoxy-6-methoxy-1-(2-(6-methyl-1H-indol-3-yl)ethyl)-3,4-dihydroisoquinoline-2(1H)-formaldehyde]
CC50 at 4 h [2]: > 50 µM
Cell survival rate/% ([3]; RAW 264.7, 0.5 μM): 71.3%
Cell survival rate/% ([3]; RAW 264.7, 5 μM): 93.4%
Cell survival rate/% ([3]; RAW 264.7, 50 μM): 96.1%

Compound: COc1cc2c(cc1OC)[C@H](CCc1c[nH]c3cc(F)ccc13)N(C=O)CC2 [(S)-C6, (S)-1-(2-(6-fluoro-1H-indol-3-yl)ethyl)-6,7-dimethoxy-3,4-dihydroisoquinoline-2(1H)-formaldehyde]
CC50 at 4 h [2]: > 50 µM
Cell survival rate/% ([3]; RAW 264.7, 0.5 μM): 108.6%
Cell survival rate/% ([3]; RAW 264.7, 5 μM): 118.4%
Cell survival rate/% ([3]; RAW 264.7, 50 μM): 93.7%
